# Assay results as given in US7435747B2, “Guanidine and amidine derivatives as factor Xa inhibitors” (Sanofi-Aventis Deutschland GmbH, priority 2000, dated 2008).
# Like-named read-outs stand apart in the source and are kept apart here.
# Target: T1, human factor Xa (Homo sapiens, UniProt P00742)
# T1 construct: 25 μl human factor Xa (Enzyme Research Laboratories, Inc; South Bend, Ind.); purchased Enzyme Research Laboratories, Inc; South Bend, Ind
# Test: Factor Xa chromogenic assay (substrate S-2765)
# Assay type: biochemical
# Conditions: read-out: Ki(FXa), inhibition constant for inhibition of factor Xa
# Procedure: Purified enzymes are used in chromogenic assays.
# The IC50 was determined by combining in appropriate wells of a Costar half-area microtiter plate 25 μl human factor Xa (Enzyme Research Laboratories, Inc.; South Bend, Ind.) in TBS-PEG; 40 μl 10% (v/v) DMSO in TBS-PEG (uninhibited control) or various concentrations of the compound to be tested diluted in 10% (v/v) DMSO in TBS-PEG; and substrate S-2765 (N(α)-benzyloxycarbonyl-D-Arg-Gly-L-Arg-p-nitroanilide; Kabi Pharmacia, Inc.; Franklin, Ohio) in TBS-PEG.
# The assay was performed by pre-incubating the compound of formula I plus enzyme for 10 min. Then the assay was initiated by adding substrate to obtain a final volume of 100 μl. The initial velocity of chromogenic substrate hydrolysis was measured by the change in absorbance at 405 nm using a Bio-tek Instruments kinetic plate reader (Ceres UV900HDi) at 25° C. during the linear portion of the time course (usually 1.5 min after addition of substrate). The enzyme concentration was 0.5 nM and substrate concentration was 140 μM.
# [1] = Ki calculated from IC50 corrected for substrate competition, 25° C., 0.5 nM enzyme, 140 μM substrate S-2765
# T1 sequence (P00742 235-488 limits assumed): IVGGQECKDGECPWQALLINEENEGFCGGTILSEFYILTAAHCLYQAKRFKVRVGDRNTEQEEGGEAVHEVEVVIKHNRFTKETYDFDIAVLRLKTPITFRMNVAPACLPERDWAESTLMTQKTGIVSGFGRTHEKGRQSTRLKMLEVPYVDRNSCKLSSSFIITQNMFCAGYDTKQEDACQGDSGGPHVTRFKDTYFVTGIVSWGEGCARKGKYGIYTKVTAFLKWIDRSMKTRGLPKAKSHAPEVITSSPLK
# T1 sequence (P00742 41-179 partner limits assumed): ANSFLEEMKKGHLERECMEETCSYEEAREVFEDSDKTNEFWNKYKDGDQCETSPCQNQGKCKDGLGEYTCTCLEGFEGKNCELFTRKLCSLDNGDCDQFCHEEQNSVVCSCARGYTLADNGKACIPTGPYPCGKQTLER
Compound,Ki [nM],Ki [1] [nM]
"N=C(N)N1CCC(CNC(=O)c2cc(O)c(Br)c(OCCc3ccc(Cl)cc3Cl)c2)CC1 [Example 2, 4-Bromo-N-(1-carbamimidoyl-piperidin-4-ylmethyl)-3-[2-(2,4-dichloro-phenyl)-ethoxy]-5-hydroxy-benzamide]",13.7,–
"Cc1c(O)cc(C(=O)NCC2CCN(C(=N)N)CC2)cc1OCCc1ccc(Cl)cc1Cl [Example 3, N-(1-Carbamimidoyl-piperidin-4-ylmethyl)-3-[2-(2,4-dichloro-phenyl)-ethoxy]-5-hydroxy-4-methyl-benzamide]",58.5,–
"COC(=O)[C@@H](NC(=O)c1cc(O)cc(OCCc2ccc(Cl)cc2Cl)c1)C1CCN(C(=N)N)CC1 [Example 1, (S)-(1-Carbamimidoyl-piperidin-4-yl)-{3-[2-(2,4-dichloro-phenyl)-ethoxy]-5-hydroxy-benzoylamino}-acetic acid methyl ester]",2120,–

# Continued, values first:
Ki [nM],Ki [1] [nM],Compound
2280,–,COC(=O)[C@H](CC1CCN(C(=N)N)CC1)NC(=O)c1cc(O)c(C)c(OCCCc2ccc(Cl)cc2Cl)c1 [Example 6]
464,–,N=C(N)N1CCC(CNC(=O)c2cc(O)cc(OCCc3ccc(Cl)cc3Cl)c2)CC1 [Example 4]
–,140,"CC(=N)N1CCC(CNC(=O)c2ccc(C)c(OCCc3ccc(Cl)cc3Cl)c2)CC1 [Example 12, 3-[2-(2,4-Dichloro-phenyl)-ethoxy]-N-[1-(10-imino-ethyl)-piperidin-4-ylmethyl]-4-methyl-benzamide; compound with trifluoro-acetic acid]"
–,173,"Cc1ccc(C(=O)NCC2CCN(C(=N)N)CC2)cc1OCCc1ccc(Cl)cc1Cl [Example 13, N-(1-Carbamimidoyl-piperidin-4-ylmethyl)-3-[2-(2,4-dichloro-phenyl)-ethoxy]-4-methyl-benzamide; compound with trifluoro-acetic acid]"
